Measured values reported in paper PMC3429506, “Screening for Novel LRRK2 Inhibitors Using a High-Throughput TR-FRET Cellular Assay for LRRK2 Ser935 Phosphorylation” (PLoS ONE, 2012).
pIC50: −log10 of the molar value.

How the values were obtained:
LRRK2 wild-type [1] = target: T1, LRRK2 wild-type (Homo sapiens, UniProt Q5S007); assay: TR-FRET cellular assay for LRRK2 Ser935 phosphorylation, HEK293T cells, BacMam LRRK2-GFP wild-type; parameters: This high-throughput assay utilizes cells expressing full-length human LRRK2 with a C-terminal GFP tag (LRRK2-GFP); host or cells: HEK293T cells transduced with BacMam; conditions: WT, +/- SD, three independent experiments, * = partial inhibition, read-out: IC50, TR-FRET cell-based assay for Ser935 phosphorylation of LRRK2
T1 sequence (Q5S007 whole entry): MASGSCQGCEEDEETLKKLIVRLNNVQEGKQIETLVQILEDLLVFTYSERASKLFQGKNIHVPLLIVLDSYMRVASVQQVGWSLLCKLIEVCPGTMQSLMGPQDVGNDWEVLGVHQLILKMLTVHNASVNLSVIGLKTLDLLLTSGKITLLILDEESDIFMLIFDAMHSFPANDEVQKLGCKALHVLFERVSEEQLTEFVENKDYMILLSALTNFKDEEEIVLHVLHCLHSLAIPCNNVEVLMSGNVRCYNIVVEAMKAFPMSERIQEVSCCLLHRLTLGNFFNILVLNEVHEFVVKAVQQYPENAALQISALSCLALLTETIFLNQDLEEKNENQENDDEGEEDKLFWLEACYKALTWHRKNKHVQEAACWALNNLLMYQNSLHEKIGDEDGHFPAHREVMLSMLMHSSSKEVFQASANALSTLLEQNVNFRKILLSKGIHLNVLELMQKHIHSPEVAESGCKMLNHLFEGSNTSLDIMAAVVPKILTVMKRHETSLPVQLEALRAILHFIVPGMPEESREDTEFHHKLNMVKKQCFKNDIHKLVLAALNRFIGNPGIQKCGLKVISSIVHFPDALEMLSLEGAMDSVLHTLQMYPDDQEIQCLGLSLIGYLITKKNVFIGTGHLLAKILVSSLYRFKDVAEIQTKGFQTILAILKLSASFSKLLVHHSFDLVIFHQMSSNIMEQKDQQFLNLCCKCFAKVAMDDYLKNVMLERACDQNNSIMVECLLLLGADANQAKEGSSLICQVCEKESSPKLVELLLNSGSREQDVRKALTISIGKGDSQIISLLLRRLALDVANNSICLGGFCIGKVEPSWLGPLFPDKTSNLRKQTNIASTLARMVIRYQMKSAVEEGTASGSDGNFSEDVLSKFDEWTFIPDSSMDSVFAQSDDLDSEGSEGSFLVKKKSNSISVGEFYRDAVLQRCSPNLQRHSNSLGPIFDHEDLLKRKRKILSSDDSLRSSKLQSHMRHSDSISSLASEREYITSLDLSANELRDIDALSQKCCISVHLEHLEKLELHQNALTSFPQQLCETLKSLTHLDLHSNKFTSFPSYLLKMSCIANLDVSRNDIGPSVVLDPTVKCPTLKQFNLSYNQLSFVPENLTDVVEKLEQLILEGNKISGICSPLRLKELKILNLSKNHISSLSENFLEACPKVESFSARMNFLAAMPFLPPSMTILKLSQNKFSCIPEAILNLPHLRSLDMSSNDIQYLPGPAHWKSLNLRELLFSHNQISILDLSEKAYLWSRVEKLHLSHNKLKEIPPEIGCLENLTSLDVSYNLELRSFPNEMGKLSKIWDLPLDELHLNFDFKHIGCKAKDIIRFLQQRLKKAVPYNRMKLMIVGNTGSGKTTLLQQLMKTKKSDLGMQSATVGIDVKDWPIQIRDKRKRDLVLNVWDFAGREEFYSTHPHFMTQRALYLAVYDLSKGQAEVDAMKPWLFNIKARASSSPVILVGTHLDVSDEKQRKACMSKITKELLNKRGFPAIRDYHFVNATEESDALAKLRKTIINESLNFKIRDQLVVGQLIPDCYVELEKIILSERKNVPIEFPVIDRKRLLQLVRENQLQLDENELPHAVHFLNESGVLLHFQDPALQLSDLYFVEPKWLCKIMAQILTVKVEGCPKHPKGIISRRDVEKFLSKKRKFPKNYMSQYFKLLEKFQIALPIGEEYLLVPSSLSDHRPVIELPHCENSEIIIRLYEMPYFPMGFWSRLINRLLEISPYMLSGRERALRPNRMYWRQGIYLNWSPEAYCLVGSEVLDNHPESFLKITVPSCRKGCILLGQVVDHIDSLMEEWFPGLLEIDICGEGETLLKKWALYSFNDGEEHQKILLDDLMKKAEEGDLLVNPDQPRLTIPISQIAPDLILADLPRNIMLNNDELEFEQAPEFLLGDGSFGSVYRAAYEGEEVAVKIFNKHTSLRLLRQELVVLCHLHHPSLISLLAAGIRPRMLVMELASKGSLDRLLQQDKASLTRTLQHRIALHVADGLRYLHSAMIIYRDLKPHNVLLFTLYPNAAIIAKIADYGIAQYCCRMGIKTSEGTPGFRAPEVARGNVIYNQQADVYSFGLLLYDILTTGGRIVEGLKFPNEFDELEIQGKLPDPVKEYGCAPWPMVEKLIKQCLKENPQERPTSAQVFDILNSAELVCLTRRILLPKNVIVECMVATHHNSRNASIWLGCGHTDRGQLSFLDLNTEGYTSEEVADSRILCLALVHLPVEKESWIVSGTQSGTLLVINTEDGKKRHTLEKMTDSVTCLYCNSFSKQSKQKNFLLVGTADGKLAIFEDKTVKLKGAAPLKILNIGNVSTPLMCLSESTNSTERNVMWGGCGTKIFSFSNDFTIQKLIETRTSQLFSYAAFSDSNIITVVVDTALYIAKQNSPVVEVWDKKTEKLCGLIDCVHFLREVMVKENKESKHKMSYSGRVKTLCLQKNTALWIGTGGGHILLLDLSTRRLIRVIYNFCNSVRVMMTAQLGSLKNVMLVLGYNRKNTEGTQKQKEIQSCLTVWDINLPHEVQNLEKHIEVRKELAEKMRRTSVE
Procedure: (§1) U-2 OS cells are maintained in growth medium (McCoy’s 5A supplemented with 10% dialyzed FBS (dFBS), 10 mM HEPES, 0.1 mM NEAA, 1 mM Sodium Pyruvate, and 100 U/mL Penicillin/100 µg/mL Streptomycin). HEK293T cells are maintained in DMEM with 10% dFBS, 10 mM HEPES, 0.1 mM NEAA and 100 U/mL Penicillin/100 µg/mL Streptomycin. SH-SY5Y cells are maintained in DMEM/F-12 medium supplemented with 10% dFBS and 100 U/mL Penicillin/100 µg/mL Streptomycin. […] GIBCO® human neural stem cells (hNSCs) were propagated as an adherent culture in StemPro® NSC SFM according to the manufacturer’s recommended protocol (Life Technologies). For BacMam transduction of U-2 OS and HEK293T, cells were harvested, mixed with various amounts of BacMam LRRK2-GFP reagent (v/v) and plated onto 6-well plates. […] Cells were assayed in 384-well format (∼20,000 cells/well) 48 hours post-transduction as above.
(§2) Transduced cells in the 384-well assay plate were incubated with indicated inhibitors (5X, 5 µL/well) for 60 to 90 minutes. During this time, 6 X lysis buffer (Life Technologies) was supplemented with 30 nM Tb-labeled anti-LRRK2 pSer935 antibody and both protease and phosphatase inhibitor cocktails (Sigma). The complete 6 X lysis buffer was added to each well (5 µL/well) and the plates were incubated at room temperature in the dark for 2 hours. […] A sigmoidal dose-response equation with varying slope was used to fit the data and generate IC50 values. Z′-factor values were calculated as: Z′-factor = 1 - [(3 × stdevno virus +3 × stdevmaxvirus)/(avgmaxvirus – avgno-virus)]. The IC50 values reported in Table 1 are the averaged numbers from three independent experiments.

LRRK2 G2019S [2] = target: T2, LRRK2 G2019S (Homo sapiens, UniProt Q5S007, G2019S); assay: TR-FRET cellular assay for LRRK2 Ser935 phosphorylation, SH-SY5Y cells, BacMam LRRK2-GFP G2019S (incl. Tocriscreen Mini library screen and follow-up); type: cell-based; parameters: This high-throughput assay utilizes cells expressing full-length human LRRK2 with a C-terminal GFP tag (LRRK2-GFP); host or cells: SH-SY5Y cells transduced with BacMam; conditions: for pIC50: three independent experiments; for Cellular TR-FRET Assay Max % Inhibition: 90 min
T2 sequence (Q5S007 whole entry G2019S): as the sequence (Q5S007 whole entry) above, with G2019S counted along it
Procedure: as §1, §2
40 nL of 10 mM Tocris library compounds in DMSO were dispensed into each well of the assay plate by the ECHO system. Equal volumes of DMSO were dispensed into the control wells. Cells were incubated with compounds for 90 to 120 min prior to cell lysis and detection as described above. The percent inhibition is calculated as: [(average emission ratios of DMSO control wells – average emission ratios of compound wells)/(average emission ratios of DMSO control wells – average emission ratios of LRRK2-IN-1 treated wells)] * 100. For the dose-response follow-up studies, fresh compound DMSO stock solutions were prepared from powder. […] Z′-factor value was calculated as: Z′-factor = 1 - [(3 × stdevLRRK2-IN-1+3 × stdevDMSO)/(avgDMSO – avgLRRK2-IN-1)]. The IC50 values reported in Table 2 are the averaged numbers from three independent experiments for both cellular and biochemical TR-FRET assays and one representative result of two independent experiments for the cytotoxicity assay.

LRRK2 G2019S [3] = target: T2, LRRK2 G2019S; assay: TR-FRET cellular assay for LRRK2 Ser935 phosphorylation, HEK293T cells, BacMam LRRK2-GFP G2019S; parameters: This high-throughput assay utilizes cells expressing full-length human LRRK2 with a C-terminal GFP tag (LRRK2-GFP); host or cells: HEK293T cells transduced with BacMam; conditions: +/- SD, three independent experiments, * = partial inhibition, read-out: IC50, TR-FRET cell-based assay for Ser935 phosphorylation of LRRK2
Procedure: as §1, §2

LRRK2 wild-type [4] = target: T1, LRRK2 wild-type; assay: TR-FRET cellular assay for LRRK2 Ser935 phosphorylation, U-2 OS cells, BacMam LRRK2-GFP wild-type; type: cell-based; parameters: This high-throughput assay utilizes cells expressing full-length human LRRK2 with a C-terminal GFP tag (LRRK2-GFP); host or cells: U-2 OS cells transduced with BacMam; conditions: WT, +/- SD, three independent experiments, * = partial inhibition, read-out: IC50, TR-FRET cell-based assay for Ser935 phosphorylation of LRRK2
Procedure: as §1, §2

LRRK2 G2019S [5] = target: T2, LRRK2 G2019S; assay: TR-FRET cellular assay for LRRK2 Ser935 phosphorylation, U-2 OS cells, BacMam LRRK2-GFP G2019S; type: cell-based; parameters: This high-throughput assay utilizes cells expressing full-length human LRRK2 with a C-terminal GFP tag (LRRK2-GFP); host or cells: U-2 OS, SH-SY5Y, HEK293T cells or human neural stem cells transduced with BacMam; conditions: G2019S, +/- SD, three independent experiments, * = partial inhibition, read-out: IC50, TR-FRET cell-based assay for Ser935 phosphorylation of LRRK2
Procedure: as §1, §2

LRRK2 wild-type [6] = target: T1, LRRK2 wild-type; assay: TR-FRET cellular assay for LRRK2 Ser935 phosphorylation, SH-SY5Y cells, BacMam LRRK2-GFP wild-type; type: cell-based; parameters: This high-throughput assay utilizes cells expressing full-length human LRRK2 with a C-terminal GFP tag (LRRK2-GFP); host or cells: SH-SY5Y cells transduced with BacMam; conditions: WT, +/- SD, three independent experiments, * = partial inhibition, read-out: IC50, TR-FRET cell-based assay for Ser935 phosphorylation of LRRK2
Procedure: as §1, §2

LRRK2 G2019S [7] = target: T2, LRRK2 G2019S; assay: In vitro biochemical LRRK2 TR-FRET activity assay; conditions: LRRK2 G2019S, ATP 134 µM (Km,app), LRRKtide substrate, three independent experiments; read-out: Biochemical LRRK2 assay IC50 +/- SD
Procedure: The Biochemical LRRK2 TR-FRET activity assay was performed according to the manufacture recommended assay protocol (Life Technologies). […] After incubation at room temperature for 1 hour, the kinase reactions were stopped by addition of 10 µL of 20 mM EDTA and 4 nM Tb-anti-pERM (pLRRKtide) antibody in TR-FRET dilution buffer (Life Technologies). After a 30 minute incubation at room temperature, TR-FRET measurements were obtained on a BMG PHERAstar plate reader using LanthaScreen® filters and settings. A 16 point, 2-fold dilution series of each compound was tested in triplicate at each concentration and assays were also performed in triplicate.

[8] = tested on: SH-SY5Y cells expressing LRRK2-GFP G2019S; assay: Cytotoxicity assay (resazurin-based cell viability); conditions: read-out: Cytotoxicity Assay IC50; same conditions as TR-FRET follow-up; one representative of two experiments
GFP-LRRK2 G2019S = target: T3, GFP-LRRK2 G2019S (Homo sapiens, UniProt Q5S007, G2019S); assay: Immunoprecipitation/Western analysis of LRRK2 phosphorylation at Ser910, Ser935, Ser955, Ser973 in HEK293 T-REx GFP-LRRK2 G2019S cells; type: cell-based; conditions: 20 µM, 90 min, HEK293 GFP-LRRK2 G2019S, Figure 6
T3 construct: expressed in transfected cells
T3 sequence (Q5S007 whole entry G2019S): as the sequence (Q5S007 whole entry) above, with G2019S counted along it
Procedure: (§3) Immunoblot analysis: BacMam LRRK2-GFP transduced U-2 OS or SH-SY5Y cells (10^7 cells) were left untreated or treated with 3 µM LRRK2-IN-I for 90 min. For lysate preparation, the cells were washed once with ice-cold PBS and lysed by addition of ice-cold lysis buffer (20 mM Tris-HCl, pH 7.4, 1% NP-40, 5 mM EDTA, 5 mM NaF, 150 mM NaCl, and 1∶100 of protease and phosphatase inhibitor cocktails). The lysate was cleared of debris by centrifugation. Equal amount of total protein was loaded onto each lane for SDS-PAGE (3–8% Tris Acetate). The proteins were transferred onto nitrocellulose membrane using the iBLOT® dry blotting system (Life Technologies) according to manufacturer’s protocol. The membranes were blocked and incubated with a primary antibody against LRRK2 (Cell Signaling Technologies), followed by incubation with alkaline phosphatase-conjugated secondary antibody (WesternBreeze® chromogenic Kit, Life Technologies). The blot was developed by using the chromogenic BCIP/NBT substrate (WesternBreeze® chromogenic Kit, Life Technologies). […] Two days post induction, cells were treated for 90 minutes in the presence of 20 µM of compound or DMSO vehicle control. Cells were rapidly lysed in ice cold lysis buffer 50 mM Tris/HCl, pH 7.5, 1 mM EGTA, 1 mM EDTA, […] 1 mM sodium orthovanadate, 10 mM sodium beta-glycerolphosphate, 50 mM NaF, 5 mM sodium pyrophosphate, 0.27 M sucrose, 1 mM benzamidine and 2 mM phenylmethanesulphonylfluoride (PMSF) and one tablet each complete protease inhibitor and PhosSTOP phosphatase inhibitor (Roche) and was supplemented with 1% (v/v) Triton X-100. GFP-LRRK2 was immunoprecipitated with GFP nanotrap beads (ChromoTek). Immunecomplexes were washed twice with lysis buffer supplemented with 300 mM NaCl and once with Buffer A (50 mM Tris/HCl, pH 7.5, 50 mM NaCl, 0.1 mM EGTA and 0.1% (v/v) 2-mercaptoethanol, and 0.27 M sucrose).

LRRK2 A2016T/G2019S = target: T4, LRRK2 A2016T/G2019S (Homo sapiens, UniProt Q5S007, A2016T/G2019S); assay: Immunoprecipitation/Western analysis of LRRK2 phosphorylation in T-REx HEK293 cells expressing inhibitor desensitizing mutant; type: cell-based; conditions: 20 µM, Figure 6 IRM
T4 construct: expressed in transfected cells
T4 sequence (Q5S007 whole entry A2016T/G2019S): as the sequence (Q5S007 whole entry) above, with A2016T, G2019S counted along it
Procedure: as §3

[9] = Cytotoxicity assay (resazurin-based cell viability); conditions: human
[10] = Tocriscreen Mini library screen, 20 µM, SH-SY5Y G2019S, relative to LRRK2-IN-1 control
[11] = dose-response follow-up, SH-SY5Y G2019S
[12] = dose-response follow-up, SH-SY5Y G2019S, read-out: Cellular TR-FRET Assay IC50 +/-SD

Question: Which results are given for `Cc1cncc2cccc(S(=O)(=O)N3CCCNC[C@@H]3C)c12` [H-1152]?
Answer: pIC50 (LRRK2 wild-type [1]): 5.53; pIC50 (LRRK2 G2019S [2]; SH-SY5Y, G2019S, +/- SD, * = partial inhibition, read-out: IC50, TR-FRET cell-based assay for Ser935 phosphorylation of LRRK2): 6.11; pIC50 (LRRK2 G2019S [3]): 5.86; pIC50 (LRRK2 wild-type [4]): 5.48; pIC50 (LRRK2 G2019S [5]): 6.05; pIC50 (LRRK2 wild-type [6]): 5.78

Question: Which results are given for `O=C1C(SCCO)=C(SCCO)C(=O)c2ccccc21` [NSC 95397]?
Answer: pIC50 (LRRK2 G2019S [7]): 4.82; %Inhibition Initial screen (LRRK2 G2019S [2]; [10]): 76.1%; Cellular TR-FRET Assay Max % Inhibition (LRRK2 G2019S [2]; [11]): 80%; pIC50 (LRRK2 G2019S [2]; [12]): 5.89; pIC50 [8]: 5.11; effect on phosphorylation of Ser910, Ser935, Ser955 and Ser973 (IP-Western) (GFP-LRRK2 G2019S): moderately reduced phosphorylation of all four residues

Question: For `O=C1NC(=O)c2c1c1c3ccccc3n3c1c1c2c2ccccc2n1C1CCC3O1` [SB 218078], which “%Inhibition Initial screen” value (LRRK2 G2019S [2]; [10]) is on record?
Answer: The value was 55.3%.

Question: What about the “Cellular TR-FRET Assay Max % Inhibition” value (LRRK2 G2019S [2]; [11]) of the same compound?
Answer: The value was 54%.

Question: And the pIC50 (LRRK2 G2019S [2]; [12])?
Answer: Its pIC50 is 5.02.

Question: What about the pIC50 [8] of the same compound?
Answer: The pIC50 was < 4.70.

Question: What about the “effect on phosphorylation of Ser910, Ser935, Ser955 and Ser973 (IP-Western)” value (GFP-LRRK2 G2019S) of the same compound?
Answer: Its value is “moderately reduced phosphorylation of all four residues”.

Question: What about the “effect of desensitizing mutation A2016T/G2019S on compound-induced dephosphorylation (IP-Western)” value (LRRK2 A2016T/G2019S) of the same compound?
Answer: Its value is “did not appear to be changed”.

Question: Which results are given for `Oc1c2ccccc2c2c3c(cccc13)N=N2` [SP 600125]?
Answer: pIC50 (LRRK2 G2019S [7]): 6.66; inhibition at 20 µM (LRRK2 G2019S [2]; SH-SY5Y, Tocriscreen Mini library screen, 20 µM, SH-SY5Y G2019S, relative to LRRK2-IN-1 control, read-out: %Inhibition Initial screen): 88%; %Inhibition Initial screen (LRRK2 G2019S [2]; [10]): 88.3%; Cellular TR-FRET Assay Max % Inhibition (LRRK2 G2019S [2]; [11]): 103%; pIC50 (LRRK2 G2019S [2]; [12]): 6.00; pIC50 [9]: < 4.70; effect on phosphorylation of Ser910, Ser935, Ser955 and Ser973 (IP-Western) (GFP-LRRK2 G2019S): inhibited phosphorylation of Ser910, Ser935, Ser955 and Ser973
